In patent US9290791B2, “Reagents and methods for sirtuin capture” (CORNELL UNIVERSITY, priority 2010, dated 2016):

What was measured:
SirT3 = biological target: T1, SirT3 (Homo sapiens, UniProt Q9NTG7); test: Sirtuin inhibitor screening pulldown assay (NAD+, azido-thiotripeptide, alkynyl-biotin; SDS-PAGE, silver stain); type: biochemical; conditions: 500 μM inhibitor; sirtuin mixture, 4.9 μM SirT3, 500 μM NAD+, 200 μM 4-azido-BzlK(AcS)AAOMe; FIG. 10
T1 construct: poly histidine tag (N); made in house; host or cells: E. coli BL21-CodonPlus(DE3)-RIPL
T1 sequence (Q9NTG7 1-399): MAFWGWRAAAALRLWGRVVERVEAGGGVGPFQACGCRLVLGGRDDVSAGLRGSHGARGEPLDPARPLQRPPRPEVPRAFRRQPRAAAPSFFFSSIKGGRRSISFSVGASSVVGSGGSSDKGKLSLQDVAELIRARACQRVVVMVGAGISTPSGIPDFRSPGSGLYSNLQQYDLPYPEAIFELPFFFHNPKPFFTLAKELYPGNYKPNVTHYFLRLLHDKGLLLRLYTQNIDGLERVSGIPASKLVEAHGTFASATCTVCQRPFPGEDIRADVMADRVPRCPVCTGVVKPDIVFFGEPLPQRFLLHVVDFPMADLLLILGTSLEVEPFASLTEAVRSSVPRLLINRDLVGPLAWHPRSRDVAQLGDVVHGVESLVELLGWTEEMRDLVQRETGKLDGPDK
Procedure: (§1) The key criterion for our pulldown technology is the formation of a stalled thioimidate complex with a cross-linkable moiety at the active site on sirtuins. If the presence of a sirtuin inhibitor can interrupt thioimidate formation, there will be less or no sirtuin can be harvested later on.
(§2) Pulldown assay: a typical reaction was performed in 100 mM phosphate buffer pH 7.5 in a total volume of 100 μL. Each reaction contained 500 μM of NAD^+, 200 μM of 4-azido-BzlK(AcS)AAOMe, and various concentrations of potential inhibitors. One control experiment which contained 500 μM of NAD^+ only were run at the same time. Reactions were initiated by addition of enzymes with final concentrations: 5 μM for SirT1, 3.4 μM for SirT2, 4.9 μM for SirT3, 5.04 μM for SirT5 and 5.35 μM for SirT6. Reactions were incubated at 37° C. for 30 min and then alkynyl-biotin was added to each sample to a final concentration of 500 μM followed by 3 μL of freshly premixed click chemistry cocktail: CuSO4 (final concentration 1 mM), tris[(1-benzyl-1H-1,2,3-triazol-4-yl)methyl]amine (TBTA, final concentration 600 μM) and tris(2-carboxyethyl)phosphine hydrochloride (TCEP, final concentration 2 mM). The samples were incubated at room temperature for 30 min. Then, 50 μL streptavidin beads (pretreated with 1 mM of BSA) were added to each sample and the incubation were continued at room temperature for 1 h. […]

SirT1 [1] = biological target: T2, SirT1 (Homo sapiens, UniProt Q96EB6); test: HPLC deacetylation assay of SirT1 with p53mer; type: biochemical; conditions: 3 μM SirT1, 500 μM NAD+, 300 μM p53mer, various concentrations of suramin; FIG. 11
T2 sequence (Q96EB6 whole entry, species assumed): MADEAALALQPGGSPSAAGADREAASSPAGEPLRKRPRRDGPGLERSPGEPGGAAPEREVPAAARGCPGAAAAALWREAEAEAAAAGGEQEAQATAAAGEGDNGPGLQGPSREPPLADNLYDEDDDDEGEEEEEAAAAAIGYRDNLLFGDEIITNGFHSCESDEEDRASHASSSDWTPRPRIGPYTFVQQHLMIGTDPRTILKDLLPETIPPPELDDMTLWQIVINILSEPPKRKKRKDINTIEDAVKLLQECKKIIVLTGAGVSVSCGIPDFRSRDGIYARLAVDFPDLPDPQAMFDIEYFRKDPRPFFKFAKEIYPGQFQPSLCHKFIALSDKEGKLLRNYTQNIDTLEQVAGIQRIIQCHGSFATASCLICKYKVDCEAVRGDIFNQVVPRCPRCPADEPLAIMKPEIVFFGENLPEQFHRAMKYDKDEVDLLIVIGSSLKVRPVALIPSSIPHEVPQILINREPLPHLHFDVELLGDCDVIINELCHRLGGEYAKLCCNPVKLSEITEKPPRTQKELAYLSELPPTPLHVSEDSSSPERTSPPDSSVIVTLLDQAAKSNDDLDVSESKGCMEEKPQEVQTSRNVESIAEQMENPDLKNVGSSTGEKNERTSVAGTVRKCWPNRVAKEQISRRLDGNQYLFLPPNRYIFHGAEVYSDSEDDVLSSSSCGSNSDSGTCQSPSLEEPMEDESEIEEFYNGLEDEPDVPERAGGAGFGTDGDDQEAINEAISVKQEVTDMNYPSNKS
Procedure: HPLC assay: reactions were performed in 100 mM phosphate buffer pH 7.5 in a total volume of 50 μL. Each reaction contained 500 μM of NAD^+, 300 μM of p53mer and various concentrations of suramin. Reactions were initiated by addition of SirT1 to a final concentration of 3 μM. A negative control which contained 500 μM of NAD^+ and 300 μM of p53mer, but was quenched by addition of TFA before the addition of enzyme was run at the same time. The reactions were incubated at 37° C. for 20 min before being quenched by 8 of 10% TFA. The samples were then injected on an HPLC fitted to a Macherey-Nagel Nucleosil C18 column. AADPR, NAD^+ and NAM peaks were resolved using a gradient of 0 to 10% methanol in 20 mM ammonium acetate. Chromatograms were analyzed at 260 nm.

sirtuin = conditions: known sirtuin inhibitor; cited from earlier work
SirT1 [2] = biological target: T2, SirT1; test: Sirtuin inhibitor screening pulldown assay (NAD+, azido-thiotripeptide, alkynyl-biotin; SDS-PAGE, silver stain); type: biochemical; conditions: 500 μM inhibitor; sirtuin mixture, 5 μM SirT1, 500 μM NAD+, 200 μM 4-azido-BzlK(AcS)AAOMe; FIG. 10
Procedure: as §1, §2

SirT5 = biological target: T3, SirT5 (Homo sapiens, UniProt Q9NXA8); test: as above; type: biochemical; conditions: 500 μM inhibitor; sirtuin mixture, 5.04 μM SirT5, 500 μM NAD+, 200 μM 4-azido-BzlK(AcS)AAOMe; FIG. 10
T3 construct: SirT5(34-302); poly histidine tag (N); made in house; host or cells: E. coli BL21-CodonPlus(DE3)-RIPL
T3 sequence (Q9NXA8 34-302): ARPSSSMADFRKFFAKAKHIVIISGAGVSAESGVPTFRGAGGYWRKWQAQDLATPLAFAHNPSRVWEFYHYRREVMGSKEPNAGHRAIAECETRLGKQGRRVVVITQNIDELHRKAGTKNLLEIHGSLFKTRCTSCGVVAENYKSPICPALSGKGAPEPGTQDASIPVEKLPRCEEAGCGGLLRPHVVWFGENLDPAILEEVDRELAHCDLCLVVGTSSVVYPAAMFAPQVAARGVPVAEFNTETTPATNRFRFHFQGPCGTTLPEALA
Procedure: as §1, §2

[3] = test system: class III HDACs (sirtuins); test: Sirtuin inhibitor screening pulldown assay on sirtuin mixture; type: biochemical; conditions: 20 μM inhibitor; mixture of SirT1, SirT2, SirT3, SirT5, SirT6; FIG. 10
Procedure: as §1, §2

| SirT3 captured by standard pulldown assay (SirT3) | inhibition confirmed by HPLC assay (SirT1 [1]) | SirT1 captured by standard pulldown assay (SirT1 [2]) | SirT5 captured by standard pulldown assay (SirT5) | SMILES | IC50 (sirtuin) | effect on sirtuin capture in pulldown assay [3] |
| --- | --- | --- | --- | --- | --- | --- |
| less | confirmed | less | less | Cc1ccc(C(=O)Nc2ccc(S(=O)(=O)O)c3cc(S(=O)(=O)O)cc(S(=O)(=O)O)c23)cc1NC(=O)c1cccc(NC(=O)Nc2cccc(C(=O)Nc3cc(C(=O)Nc4ccc(S(=O)(=O)O)c5cc(S(=O)(=O)O)cc(S(=O)(=O)O)c45)ccc3C)c2)c1 [Suramin, suramin] | low micromolar range |  |
|  |  |  |  | CC(/C=C/C(=O)NO)=C\[C@@H](C)C(=O)c1ccc(N(C)C)cc1 [TSA, trichostatin A] |  | no effects |
